What was measured:
planktonic S. aureus = experiment: MIC/MBC assay (CLSI broth dilution); type: cell-based; details: Staphylococcus aureus
Method: The CLSI reference method for broth dilution antimicrobial susceptibility testing of bacteria was used to determine the MIC of L-161, 982 (CLSI, 2008). Based on inhibition of S. aureus in the planktonic assay, TSB was used for all antimicrobial susceptibility testing of S. aureus. Cells were diluted in sterile TSB to a final concentration of 5.0×10^5 CFU/ml and 200-μl aliquots (1×10^5 CFU/well) were added to wells of sterile round-bottom 96-well plates. A stock solution of L-161, 982 was diluted in sterile TSB prior to addition to cells. Drug concentrations tested ranged from 1 to 100 μg/ml and were tested in triplicate. The plates were incubated at 37° C. for 24 h and the OD600 measured using a microplate spectrophotometer (BioTek Instruments, Synergy 2). Bacteriostatic or bactericidal activity was assessed by plating 20 μl of broth from all wells with no visible growth on TSA plates and plates incubated at 37° C. for 24-48 h. The MBC was the lowest drug concentration that prevented growth.

EP3 = EP3 (Homo sapiens, UniProt P43115); details: cited from earlier work
EP3, sequence (P43115 whole entry): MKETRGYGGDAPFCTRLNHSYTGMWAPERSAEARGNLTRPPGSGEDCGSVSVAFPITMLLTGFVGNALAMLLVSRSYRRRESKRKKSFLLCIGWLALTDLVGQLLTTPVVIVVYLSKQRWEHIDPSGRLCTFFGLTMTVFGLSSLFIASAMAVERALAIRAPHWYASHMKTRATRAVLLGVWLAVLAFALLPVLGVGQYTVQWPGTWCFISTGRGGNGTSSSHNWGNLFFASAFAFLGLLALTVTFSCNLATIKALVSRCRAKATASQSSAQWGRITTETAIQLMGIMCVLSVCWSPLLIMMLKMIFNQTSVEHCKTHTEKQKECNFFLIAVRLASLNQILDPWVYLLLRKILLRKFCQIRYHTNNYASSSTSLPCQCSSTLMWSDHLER

[1] = test system: PGE2-stimulated bone formation; details: 10 mg/kg/day, young rats; cited from earlier work
[2] = test system: pre-formed dual-species biofilm; experiment: pre-formed mature biofilm (XTT, CFU); type: cell-based, C. albicans and S. aureus; details: 100 and 200 μg/ml
Method: The effect of L-161, 982 on pre-formed mature biofilms was tested. Mono- and dual-species C. albicans and/or S. aureus biofilms were grown on 96-well plates for 24 h before being treated with the indicated concentration of L-161, 982 for a further 24 h. After treatment, metabolic activity of biofilms was quantified by the XTT assay (A) and then biofilms were disrupted to determine live colony forming units (CFU) (B). The results are cumulative of three independent experiments with duplicate samples. Statistics were performed using One-way ANOVA with the Tukey post-hoc test for the XTT assay. The Mann-Whitney U test was used to analyze CFU data. Significance is indicated as follows: ns—not significant, *P<0.05; *** P<0.001. Error bars represent standard deviation.
Following growth as described above, microbes were washed in phosphate-buffered saline (PBS) by centrifugation, counted on a hemocytometer, and adjusted to 2×10^7 CFU/ml in RPMI buffered with MOPS (165 mM). […]
The XTT reduction assay was used to determine the metabolic activity of biofilms following treatment with L-161, 982 (17). Briefly, wells were washed once in PBS, and plates incubated at 37° C. for 2 h with 200 μl XTT working reagent (0.5 mg/ml XTT and 1 μM Menadione) and the resulting absorbance measured at 490 nm on a microplate spectrophotometer. […]

DP = DP (Homo sapiens, UniProt Q13258); details: cited from earlier work
DP, sequence (Q13258 whole entry): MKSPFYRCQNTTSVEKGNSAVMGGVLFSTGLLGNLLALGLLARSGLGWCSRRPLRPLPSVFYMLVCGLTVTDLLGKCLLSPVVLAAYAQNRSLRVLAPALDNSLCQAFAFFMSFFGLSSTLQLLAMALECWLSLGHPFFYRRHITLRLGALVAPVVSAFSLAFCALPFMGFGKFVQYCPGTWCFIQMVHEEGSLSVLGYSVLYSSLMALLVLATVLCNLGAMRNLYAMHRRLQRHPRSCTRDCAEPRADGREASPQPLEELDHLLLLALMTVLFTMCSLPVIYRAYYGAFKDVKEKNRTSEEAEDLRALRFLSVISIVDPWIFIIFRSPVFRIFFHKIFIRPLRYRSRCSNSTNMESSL

MRSA = experiment: checkerboard broth microdilution synergy test with oxacillin; type: cell-based, Staphylococcus aureus; details: combination with oxacillin
Method: Due to the newfound antimicrobial activity of L-161, 982 against S. aureus, the checkerboard method (14) with the broth microdilution method, was used to test for synergy with oxacillin, a drug similar to methicillin used more commonly in the clinical setting. Synergy was determined using the fractional inhibitory concentration index (FICI) method (14, 15). With this method, the MIC of the antibiotic compound in combination is divided by the MIC of the compound alone, giving the fractional contribution of each drug component in combination. Quotients for all compounds in combination are summed and drug interactions scored using the formula:
FICI=((MIC AcombA+B)/MICA)+((MIC BcombA+B)/MICB)
The stock solutions and serial twofold dilutions of oxacillin ranged from 8× the MIC to 32× below the MIC and that of L-161, 982 ranged from 8× the MIC to 2000× below the MIC. Oxacillin was serially diluted along the ordinate, while L-161, 982 was diluted along the abscissa. The resulting checkerboard contained each combination of two drugs, with wells that contain the highest concentration of each antibiotic at opposite corners. Each microtiter well was inoculated with 1×10^5 CFU. The plates were incubated at 37° C. for 24 h and the OD600 measured using a microplate spectrophotometer. […]

FP = FP (Homo sapiens, UniProt P43088); details: cited from earlier work
FP, sequence (P43088 whole entry): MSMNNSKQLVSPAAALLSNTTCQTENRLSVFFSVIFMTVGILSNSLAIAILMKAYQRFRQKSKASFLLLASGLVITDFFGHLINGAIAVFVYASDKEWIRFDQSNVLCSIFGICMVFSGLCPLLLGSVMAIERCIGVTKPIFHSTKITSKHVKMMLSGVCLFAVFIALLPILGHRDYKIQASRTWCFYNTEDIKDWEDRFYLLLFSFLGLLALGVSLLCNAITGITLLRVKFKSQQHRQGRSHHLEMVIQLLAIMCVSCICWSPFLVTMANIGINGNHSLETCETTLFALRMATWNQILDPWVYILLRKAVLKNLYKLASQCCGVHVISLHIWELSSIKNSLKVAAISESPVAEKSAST

For CCCCc1nn(-c2ccccc2C(F)(F)F)c(=O)n1Cc1ccc(-c2ccccc2S(=O)(=O)NC(=O)c2sccc2C)cc1 [L-161, 982, N-[[4′-[[3-Butyl-1,5-dihydro-5-oxo-1-[2-(trifluoromethyl)phenyl]-4H-1,2,4-triazol-4-yl]methyl][1,1′-biphenyl]-2-yl]sulfonyl]-3-methyl-2-thiophenecarboxamide], which MBC (planktonic S. aureus) is on record?
Its MBC is 100 µg/mL.

And the MIC (planktonic S. aureus; TSB, 24 h, read-out: minimum inhibitory concentration (MIC))?
The MIC was 50 µg/mL.

What about the Ki (EP3) of the same compound?
Its Ki is 1.9 µM.

And the “effect on PGE2-stimulated bone formation” value [1]?
Its value is “suppresses”.

And the “S. aureus CFUs recovered from pre-formed dual-species biofilm” value [2]?
The value was “no CFUs were recovered”.

And the Ki (DP)?
Its Ki is 5.1 µM.

And the “fractional inhibitory concentration (FIC) index” value (MRSA)?
Its value is 0.563.

And the Ki (FP)?
Its Ki is 5.6 µM.

Reference: US20200352912A1, “ANTIMICROBIAL COMPOSITIONS AND METHODS OF USING THE SAME” (The Board Of Supervisors Of Louisiana State University And …, priority 2018, published 2020)
